Assay results reported in patent publication US10047074B2, “Pharmaceutical compound” (IOmet Pharma Ltd., priority 2014, dated 2018).

Legend:
[1] = target: T1, IDO (SKOV3) (Homo sapiens, UniProt P14902); experiment: SKOV3 Kynurenine cell based assay; conditions: SKOV3 human ovarian adenocarcinoma cells, IDO induced by IFN-γ; kynurenine production, 48 hours
T1 construct: IDO expression was induced in the SKOV3 cells by the addition of 500 ng/ml IFN-γ; endogenous in cells; host or cells: SKOV3 (human ovarian adenocarcinoma), IFN-γ induced
Protocol: (§1) Exemplary compounds of the invention were prepared, and tested to determine their effect as TDO and/or IDO inhibitors. Two different assays were employed: 1. a cell-based assay for detecting the effect of test compounds on kynurenine production in two different cancer cell types. This assay utilised cancer cells which expressed either TDO (A172) or IDO (SKOV3) and as such was used as a means of testing compound activity at these two enzymes in a cell-based context. 2. a TDO and IDO biochemical coupled assay which utilised recombinantly produced and purified TDO and IDO enzymes in combination with the enzyme formamidase. This coupled enzyme system allowed conversion of N-formylkynurenine produced by TDO or IDO activity to kynurenine which was then quantified by fluorescence following addition of Erhlich's Reagent The protocols for these are set out below.
(§2) Cell Based Assay for Detection of Kynurenine Produced by TDO and/or IDO
(§3) A172 (human glioblastoma) and SKOV3 (human ovarian adenocarcinoma) cells were seeded in a 96 well plate at 30,000 or 40,000 cells per well respectively in phenol red-free RPMI supplemented with 10% FCS, 2 mM L-glutamine and 500 µM L-tryptophan. IDO expression was induced in the SKOV3 cells by the addition of 500 ng/ml IFN-γ. Cells were incubated at 37° C. with or without the addition of test compound. After 48 hours, the cells were removed by centrifugation and Erhlich's reagent was added to the supernatant.

[2] = target: T2, TDO (A172) (Homo sapiens, UniProt P48775); experiment: A172 Kynurenine cell based assay; conditions: A172 human glioblastoma cells expressing TDO; kynurenine production, 48 hours
T2 construct: This assay utilised cancer cells which expressed either TDO (A172) or IDO (SKOV3); endogenous in cells; host or cells: A172 (human glioblastoma)
Protocol: as §1, §2
as §3, with “supernatant. The Erhlich's reagent was incubated for 5 minutes before the absorbance was read at 490 nm.” for “supernatant.”

T2 sequence (P48775 whole entry): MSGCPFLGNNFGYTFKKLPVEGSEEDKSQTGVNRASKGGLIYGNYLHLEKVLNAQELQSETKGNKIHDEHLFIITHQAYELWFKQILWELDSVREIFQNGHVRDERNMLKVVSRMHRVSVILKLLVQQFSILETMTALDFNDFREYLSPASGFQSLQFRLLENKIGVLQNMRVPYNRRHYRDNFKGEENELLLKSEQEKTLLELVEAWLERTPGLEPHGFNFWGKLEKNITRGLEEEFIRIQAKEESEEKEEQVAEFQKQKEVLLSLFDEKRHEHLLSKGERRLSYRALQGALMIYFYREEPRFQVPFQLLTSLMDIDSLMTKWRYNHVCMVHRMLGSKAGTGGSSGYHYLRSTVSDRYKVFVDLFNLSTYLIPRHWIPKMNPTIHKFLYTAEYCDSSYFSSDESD
T1 sequence (P14902 whole entry): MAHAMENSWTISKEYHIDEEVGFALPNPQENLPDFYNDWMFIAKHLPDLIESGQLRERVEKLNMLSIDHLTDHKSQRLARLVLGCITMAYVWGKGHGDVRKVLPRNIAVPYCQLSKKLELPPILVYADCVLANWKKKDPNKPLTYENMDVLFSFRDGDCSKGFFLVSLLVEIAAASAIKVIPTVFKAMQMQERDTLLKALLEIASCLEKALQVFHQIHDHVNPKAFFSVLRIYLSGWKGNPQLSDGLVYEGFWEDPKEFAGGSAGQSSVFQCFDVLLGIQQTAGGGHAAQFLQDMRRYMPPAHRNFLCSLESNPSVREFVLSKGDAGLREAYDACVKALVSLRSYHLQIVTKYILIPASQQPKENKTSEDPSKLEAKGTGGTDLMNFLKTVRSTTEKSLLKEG

Row | SMILES | SKOV3 Kynurenine cell based assay pIC50 [1] | A172 Kynurenine cell based assay pIC50 [2]
1 | O=C(Nc1oncc1-c1ccccc1)C1CCCCN1 (centres unmarked) [Compound 44] | ++ (++ = pIC50 4.50-5.49) | +++ (+++ = pIC50 ≥ 5.50)
2 | CS(=O)(=O)N1CCC(C(=O)Nc2oncc2-c2ccccc2)CC1 [Compound 38] | + (+ = pIC50 4.00-4.49) | ++ (++ = pIC50 4.50-5.49)
3 | Cc1ccc(-c2cnoc2N)cc1 [Compound 3] | ++ (++ = pIC50 4.50-5.49) | +++ (+++ = pIC50 ≥ 5.50)
4 | CC(C)CS(=O)(=O)Nc1cncn1-c1ccccc1 [Compound 72] | + (+ = pIC50 4.00-4.49) | +/− (+/− = pIC50 < 4.00)
5 | O=S(=O)(Nc1oncc1-c1ccccc1)c1cccnc1 [Compound 59] | + (+ = pIC50 4.00-4.49) | +/− (+/− = pIC50 < 4.00)
6 | CCOC(=O)CCC(=O)Nc1oncc1-c1ccccc1 [Compound 28] | ++ (++ = pIC50 4.50-5.49) | +++ (+++ = pIC50 ≥ 5.50)
7 | CNc1oncc1-c1ccccc1 [Compound 21] | ++ (++ = pIC50 4.50-5.49) | ++ (++ = pIC50 4.50-5.49)
8 | CS(=O)(=O)NCCC(=O)Nc1oncc1-c1ccccc1 [Compound 48] | +/− (+/− = pIC50 < 4.00) | ++ (++ = pIC50 4.50-5.49)
9 | CCOC(=O)C(=O)Nc1oncc1-c1ccccc1 [Compound 45] | + (+ = pIC50 4.00-4.49) | +++ (+++ = pIC50 ≥ 5.50)
10 | Nc1oncc1-c1cccnc1 [Compound 16] | ++ (++ = pIC50 4.50-5.49) | ++ (++ = pIC50 4.50-5.49)
11 | O=C(CC1CCCCC1)Nc1oncc1-c1ccccc1 [Compound 24] | ++ (++ = pIC50 4.50-5.49) | ++ (++ = pIC50 4.50-5.49)
12 | OCCCNc1oncc1-c1ccccc1 [Compound 42] | + (+ = pIC50 4.00-4.49) | +++ (+++ = pIC50 ≥ 5.50)
13 | CC(C)CS(=O)(=O)Nc1oncc1-c1ccccc1 [Compound 31] | ++ (++ = pIC50 4.50-5.49) | +/− (+/− = pIC50 < 4.00)
14 | O=S(=O)(Nc1cnoc1-c1ccccc1)N1CCCCC1 [Compound 56] | ++ (++ = pIC50 4.50-5.49) | +/− (+/− = pIC50 < 4.00)
15 | Nc1oncc1-c1ccccc1[N+](=O)[O-] [Compound 67] | + (+ = pIC50 4.00-4.49) | +/− (+/− = pIC50 < 4.00)
16 | O=C(Nc1oncc1-c1ccccc1)C(O)c1ccccc1 (centres unmarked) [Compound 76] | + (+ = pIC50 4.00-4.49) | ++ (++ = pIC50 4.50-5.49)
17 | Nc1oncc1-c1ccc(Cl)cc1 [Compound 2] | ++ (++ = pIC50 4.50-5.49) | +++ (+++ = pIC50 ≥ 5.50)
18 | O=C(O)CCC(=O)Nc1oncc1-c1ccccc1 [Compound 33] | +/− (+/− = pIC50 < 4.00) | + (+ = pIC50 4.00-4.49)
19 | CN(C)C(=O)CNc1oncc1-c1ccccc1 [Compound 60] | + (+ = pIC50 4.00-4.49) | ++ (++ = pIC50 4.50-5.49)
20 | COCC(=O)Nc1oncc1-c1ccccc1 [Compound 25] | ++ (++ = pIC50 4.50-5.49) | +++ (+++ = pIC50 ≥ 5.50)
21 | O=S(=O)(Nc1cnoc1-c1ccccc1)c1cc(Cl)ccc1Cl [Compound 54] | ++ (++ = pIC50 4.50-5.49) | + (+ = pIC50 4.00-4.49)
22 | O=S(=O)(Nc1cnoc1-c1ccccc1)c1ccc2ccccc2c1 [Compound 53] | ++ (++ = pIC50 4.50-5.49) | + (+ = pIC50 4.00-4.49)
23 | O=C(Nc1cnoc1-c1ccccc1)c1ccccc1 [Compound 77] | + (+ = pIC50 4.00-4.49) | +/− (+/− = pIC50 < 4.00)
24 | O=C(CCO)Nc1oncc1-c1ccccc1 [Compound 41] | ++ (++ = pIC50 4.50-5.49) | +++ (+++ = pIC50 ≥ 5.50)
25 | CS(=O)(=O)c1ccc(Cl)c(S(=O)(=O)Nc2cnoc2-c2ccccc2)c1 [Compound 55] | + (+ = pIC50 4.00-4.49) | +/− (+/− = pIC50 < 4.00)
26 | Nc1oncc1-c1ccc(F)cc1F [Compound 14] | ++ (++ = pIC50 4.50-5.49) | ++ (++ = pIC50 4.50-5.49)
27 | O=C(Nc1oncc1-c1ccccc1)c1ccccn1 [Compound 40] | ++ (++ = pIC50 4.50-5.49) | +++ (+++ = pIC50 ≥ 5.50)
28 | CC(=O)N1CCC(C(=O)Nc2oncc2-c2ccccc2)CC1 [Compound 35] | + (+ = pIC50 4.00-4.49) | ++ (++ = pIC50 4.50-5.49)

The next lines start with the values.

Row | SKOV3 Kynurenine cell based assay pIC50 [1] | A172 Kynurenine cell based assay pIC50 [2] | SMILES
29 | + (+ = pIC50 4.00-4.49) | ++ (++ = pIC50 4.50-5.49) | Cc1noc(N)c1-c1ccc(Cl)cc1 [Compound 9]
30 | ++ (++ = pIC50 4.50-5.49) | +++ (+++ = pIC50 ≥ 5.50) | NCC(=O)Nc1oncc1-c1ccccc1 [Compound 73]
31 | + (+ = pIC50 4.00-4.49) | ++ (++ = pIC50 4.50-5.49) | Nc1oncc1-c1ccccc1CCO [Compound 78]
32 | ++ (++ = pIC50 4.50-5.49) | ++ (++ = pIC50 4.50-5.49) | O=C(Nc1oncc1-c1ccccc1)C1CC1 [Compound 27]
33 | +/− (+/− = pIC50 < 4.00) | + (+ = pIC50 4.00-4.49) | CN1CCCCC1C(=O)Nc1oncc1-c1ccccc1 (centres unmarked) [Compound 61]
34 | ++ (++ = pIC50 4.50-5.49) | +++ (+++ = pIC50 ≥ 5.50) | OCCNc1oncc1-c1ccccc1 [Compound 57]
35 | + (+ = pIC50 4.00-4.49) | ++ (++ = pIC50 4.50-5.49) | CN1CCC(C(=O)Nc2oncc2-c2ccccc2)CC1 [Compound 36]
36 | ++ (++ = pIC50 4.50-5.49) | ++ (++ = pIC50 4.50-5.49) | COc1ccccc1-c1cnoc1-c1ccccc1 [Compound 51]
37 | ++ (++ = pIC50 4.50-5.49) | +++ (+++ = pIC50 ≥ 5.50) | CCOC(=O)CC(=O)Nc1oncc1-c1ccccc1 [Compound 43]
38 | + (+ = pIC50 4.00-4.49) | ++ (++ = pIC50 4.50-5.49) | Nc1oncc1-c1ccccn1 [Compound 11]
39 | + (+ = pIC50 4.00-4.49) | ++ (++ = pIC50 4.50-5.49) | Nc1oncc1-c1ccccc1O [Compound 68]
40 | ++ (++ = pIC50 4.50-5.49) | +/− (+/− = pIC50 < 4.00) | CC(C)(C)C(=O)Nc1oncc1-c1ccc(F)cc1 [Compound 8]
41 | + (+ = pIC50 4.00-4.49) | ++ (++ = pIC50 4.50-5.49) | Nc1oncc1-c1ccncc1 [Compound 46]
42 | + (+ = pIC50 4.00-4.49) | + (+ = pIC50 4.00-4.49) | O=C(Nc1oncc1-c1ccccc1)C(O)C1CCCCC1 (centres unmarked) [Compound 74]
43 | ++ (++ = pIC50 4.50-5.49) | +/− (+/− = pIC50 < 4.00) | O=S(=O)(Nc1cncn1-c1ccccc1)c1ccccc1 [Compound 79]
44 | + (+ = pIC50 4.00-4.49) | ++ (++ = pIC50 4.50-5.49) | CNCC(=O)Nc1oncc1-c1ccccc1 [Compound 71]
45 | ++ (++ = pIC50 4.50-5.49) | + (+ = pIC50 4.00-4.49) | O=C(Nc1oncc1-c1ccccc1)c1ccncc1 [Compound 39]
46 | + (+ = pIC50 4.00-4.49) | ++ (++ = pIC50 4.50-5.49) | CN(C)C(=O)CCC(=O)Nc1oncc1-c1ccccc1 [Compound 58]
